The values that follow come from ChEMBL document CHEMBL5247639, “Fused-ring α-pyrones from intramolecular C-H activation and their lipids-lowering activity associated with LXR-IDOL-LDLR axis regulation” (2022).

Active and inactive are the calls of the source. The rule behind the calls is not given here.

For assay [1], the system named is HepG2. Kind of assay: Induction of LDL uptake in human HepG2 cells at 5 uM incubated for 24 hrs by microplate reader analysis. The format is functional, cell-based.
Assay [2] concerns HepG2. Kind of assay: Upregulation of LDLR protein level in human HepG2 cells at 5 uM incubated for 24 hrs by Western blot analysis. The format is functional, cell-based. For orientation: In western blotting, separated proteins are transferred to a membrane and probed.
Assay [3] relates to Syrian golden hamster. The assay is described as follows: Hypolipidemic activity in high fat diet induced Syrian golden hamster assessed as decrease in triglyceride level at 30 mg/kg,ip administered once daily for 21 days by automatic biochemical analyzer. In kind it is functional, organism-based. The note with it: Mesocricetus auratus, time 21.0 day.
Assay [4] can be described thus: Downregulation of IDOL protein level in human HepG2 cells at 5 uM incubated for 24 hrs by Western blot analysis relative to control. In kind it is functional.
Assay [5] has as its system Syrian golden hamster. The assay is described as follows: Hypolipidemic activity in high fat diet induced Syrian golden hamster assessed as decrease in total cholesterol level at 30 mg/kg,ip administered once daily for 21 days by automatic biochemical analyzer. The format is functional, organism-based. The note with it: Mesocricetus auratus, time 21.0 day.
In assay [6] the test system is Syrian golden hamster. Kind of assay: Hypolipidemic activity in high fat diet induced Syrian golden hamster assessed as decrease in low-density lipoprotein cholesterol level at 30 mg/kg,ip administered once daily for 21 days by automatic biochemical analyzer. In kind it is functional, organism-based. The note with it: Mesocricetus auratus, time 21.0 day.
Assay [7] has as its system HepG2. Kind of assay: Inhibition of LXR activity in human HepG2 cells assessed as downregulation of SREBP-1c level at 5 uM incubated for 24 hrs by Q-PCR analysis. In kind it is cell-based.
Assay [8] has as its system HepG2. Kind of assay: Downregulation of LXRalpha protein level in nucleus of human HepG2 at 5 uM incubated for 24 hrs by Western blot analysis. In kind it is functional, cell-based.
The subject of assay [9] is HepG2. The assay is described as follows: Downregulation of IDOL mRNA level in human HepG2 cells at 5 uM incubated for 24 hrs by Q-PCR analysis. The format is functional, cell-based.
For assay [10], the system named is HepG2. The assay is described as follows: Inhibition of LXR activity in human HepG2 cells assessed as downregulation of ABCA1 level at 5 uM incubated for 24 hrs by Q-PCR analysis. The format is cell-based.
The nature of assay [11]: Upregulation of LDLR protein level in human HepG2 cells at 5 uM incubated for 24 hrs by Western blot analysis relative to control. In kind it is functional.

For `O=c1cc2c(c(-c3cc4ccccc4o3)o1)CCCC2`, the outcome in the assay with HepG2 [1] was Active.

Turning to `O=c1cc2c(c(-c3cc4ccccc4s3)o1)CCCC2`, in the assay with HepG2 [1], the result was Active.

As for `COc1ccccc1-c1oc(=O)cc2c1CCCC2`, the outcome with HepG2 [2] was inactive. Besides, the result in the assay with HepG2 [1] was Active.

In the case of `O=c1cc2c(c(-c3ccc(-c4cccs4)s3)o1)CCCC2`, the outcome in the assay on HepG2 [1] was Active.

With `O=c1oc(-c2ccccc2)c2c3c1c1ccccc1n3CCC2`, the outcome in the assay with Syrian golden hamster [3], in the assay with Syrian golden hamster [5], with HepG2 [1], with Syrian golden hamster [6], in the assay with HepG2 [8] and in the assay on HepG2 [9] was Active. The Activity stood at 28% in assay [4] and 160% in assay [11]. Also, the inhibition entry in the assay with HepG2 [7] and with HepG2 [10] was “Active” each time.

For `O=c1cc2c(c(-c3ccc(-c4ccccc4)s3)o1)CCCC2`, the result in the assay with HepG2 [1] was Active.

As to `O=c1cc2c(c(-c3cccs3)o1)CCCC2`, the Activity in assay [4] is recorded as 42%; in [11] it was 238%. In addition, the outcome in the assay with HepG2 [1], in the assay with HepG2 [8] and with HepG2 [9] was Active. The inhibition entry with HepG2 [7] and with HepG2 [10] was “Active” in each case.

For the molecule `O=c1oc(-c2cccs2)c2c3c1c1ccccc1n3CCC2`, the outcome in the assay on HepG2 [1] was Active.
